# Source: PubChem BioAssay (NCI)
#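 Step 1: Grow cells in 96-well plates. Step 2: Expose to compound for 48 hours at 5 concentrations. Step 3: Interpolate endpoints linearly; if unreached, use highest concentration. GI50 = concentration required for 50% inhibition of growth. TGI: total growth inhibition.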
# Tests used:
# Experiment in all cases: inhibition of tumour cell growth, NCI panel, 48 h
# COLO 205 colon = test system: COLO 205 colon
# KM12 colon = test system: KM12 colon
# M14 melanoma = test system: M14 melanoma
# PC-3 prostate = test system: PC-3 prostate
# RXF 393 renal = test system: RXF 393 renal
# SF-295 CNS = test system: SF-295 CNS
# SK-MEL-5 melanoma = test system: SK-MEL-5 melanoma
# SR leukemia = test system: SR leukemia
SMILES,TGI (COLO 205 colon) [µM],TGI (KM12 colon) [µM],TGI (M14 melanoma) [µM],TGI (PC-3 prostate) [µM],TGI (RXF 393 renal) [µM],TGI (SF-295 CNS) [µM],TGI (SK-MEL-5 melanoma) [µM],TGI (SR leukemia) [µM],GI50 (KM12 colon) [µM],GI50 (M14 melanoma) [µM],GI50 (PC-3 prostate) [µM],GI50 (RXF 393 renal) [µM],GI50 (SF-295 CNS) [µM],GI50 (SK-MEL-5 melanoma) [µM],GI50 (SR leukemia) [nM],GI50 (COLO 205 colon) [µM]
O=c1[nH]cc(/C=N\Nc2ccccc2)c(=O)[nH]1,> 100,> 100,> 100,> 100,> 100,> 100,> 100,> 100,–,–,–,–,–,–,–,–
O=Cc1ccc(-c2ccc(-c3nc4ccccc4[nH]3)cc2)s1,–,69,43.2,40.3,57.8,55.5,41.9,98.7,22.8,18.2,18.2,22.7,18.6,20.3,15600,–
C=C(C)[C@@H]1CC[C@]2(C(N)=O)CC[C@]3(C)[C@H](CC[C@@H]4[C@@]5(C)CC[C@H](O)C(C)(C)[C@@H]5CC[C@]43C)[C@@H]12,15,11.9,> 100,14.7,5.39,24.8,19.2,23.5,3.2,6.05,2.83,2.1,3.39,5.22,4140,3.63
C[C@@H](N)C1CCC(C(=O)Nc2ccncc2)CC1 (some centres undefined),> 100,> 100,> 100,> 100,> 100,> 100,> 100,> 100,> 100,> 100,> 100,> 100,> 100,> 100,36400,> 100
Cc1ncc(C(=O)Nc2ccc(CN3CCN(C)CC3)c(C(F)(F)F)c2)cc1C#Cc1cnc(N)c2cnccc12,3.74,11.2,0.17,16.3,0.399,14.8,0.604,1.92,–,0.0225,0.225,0.0706,0.309,0.0805,45.6,0.0276
COc1cc2c3c(c4ccc(OC)c(OC)c4c2cc1OC)CN1CCC[C@@H]1C3,–,0.965,2.56,6.58,0.29,6.39,0.324,–,–,–,–,–,–,–,–,–
Cc1cccc(-c2nn3c(c2-c2ccnc4ccc(C(N)=O)cc24)CCC3)n1,> 100,> 100,> 100,> 100,> 100,> 100,> 100,–,> 100,> 91.9,> 100,> 100,> 100,> 100,–,> 100
COC(=O)C(Cc1cnc[nH]1)NC(=O)CNC(=O)CCCn1c(=O)c2c3ccccc3n(C)c2n2nnc(-c3ccccc3)c12 (centres undefined),> 100,> 100,> 100,> 100,> 100,> 100,> 100,–,> 100,> 100,30.1,> 100,> 100,> 100,–,> 100
COc1c2ccoc2cc2oc(=O)ccc12,> 100,–,> 100,> 100,> 100,> 100,> 100,> 100,–,–,–,–,–,–,–,–
O=C1/C=C/[C@@H](O)[C@@H]2C[C@@H](O)C[C@H]2/C=C/CCC[C@H](CCc2ccc(C(F)(F)F)cc2)O1,0.319,–,11.9,> 83.3,0.669,47.8,0.0647,3.16,–,0.247,0.401,0.126,0.188,0.0257,311,0.175
O=Nc1ccc(O)c2ccccc12,3.92,6.02,3.41,6.99,8.24,4.55,3.04,–,2.17,1.83,1.88,2.86,2.04,1.65,–,1.93
NCCCCCCCCn1c2c(c3ccccc3c1=O)C(=O)c1ccccc1-2,–,4.59,10.4,23.3,> 100,7.18,3.94,–,2.12,3.4,5.05,4.58,2.57,1.91,–,–
COC(=O)[C@@]1(Cc2ccccc2)[C@H]2c3cc(C(=O)N4CCCC4)n(Cc4ccc(OC)c(OC)c4)c3C[C@H]2CN1C(=O)c1ccccc1,12.4,18.2,25.7,> 50,12.8,34.4,14.4,–,9.44,11.5,22.6,5.89,12.7,7.71,–,5.83
O=C(CSc1nc2ccccc2nc1-c1ccccc1)Nc1ccc(Cl)cc1,> 100,> 100,> 100,> 100,62.7,85.1,> 100,–,59.4,23.7,30.6,19.1,17.5,19.3,–,> 100
CCN(CC)CCCC(C)Nc1cc(-c2ccc(C(F)(F)F)cc2)c(C#N)c2nc3ccccc3n12 (centres undefined),–,12.6,3.37,4.26,2.96,3.57,–,5.91,3.29,1.81,2.06,1.4,1.89,–,2160,–
COc1c2c3ccccc3nc-2n(C)c2ccccc12,49.4,> 100,–,20.5,78.1,> 100,33.1,> 100,8.63,–,5.25,21.3,20.8,12.8,7100,6.73
COc1ccccc1-c1cc(/C=C2\C(=O)Nc3ncc(Br)cc32)cc(Br)c1O,> 25,> 25,> 25,> 25,> 25,> 25,> 25,–,4.43,12.9,9.18,6.77,10.5,11.4,–,20.2
Cc1ccc(S(=O)(=O)Oc2ccc([N+](=O)[O-])cc2[N+](=O)[O-])cc1,18.6,20,10.9,26.5,20.7,25.2,12.5,–,6.7,2.57,5.15,7.89,10.4,3.26,–,4.51
NC(=NCCCC1(c2ccccc2)CCCC1)Nc1ccc(Cl)cc1,3.44,–,3.27,3.12,2.88,3.06,2.93,4.24,–,1.59,1.6,1.47,1.62,1.58,1710,1.69
CNC1C(O)C(OC2C(N)CC(N)C(OC3OC(CN)=CCC3N)C2O)OCC1(C)O (centres undefined),> 100,> 100,> 100,> 100,–,> 100,> 100,> 100,–,–,–,–,–,–,–,–
COc1cc2c(c(OC)c1O)-c1ccc(OC)c(=O)cc1[C@@H](NC(=O)C(F)(F)F)CC2,0.0933,> 100,> 100,0.588,–,> 100,0.0668,–,–,–,–,–,–,–,–,–
COc1ccccc1/C=C/C(=O)c1c(O)cc2occc2c1OC,> 100,> 100,> 100,> 100,42.6,55.6,> 100,–,> 100,> 100,> 100,14.9,16.6,> 100,–,> 100
CCOC(CCCNCCCn1c2c(c3cc(OC)c(OC)cc3c1=O)C(=O)c1cc3c(cc1-2)OCO3)OCC,14.5,12.1,11.1,11.3,10.7,8.6,14.3,–,5.93,5.25,5.38,4.45,1.45,7.62,–,7.81
CCOC(=O)C(Cc1c[nH]c2ccc([N+](=O)[O-])cc12)(NC(C)=O)C(=O)OCC,> 1000,> 1000,> 1000,–,261,> 1000,–,–,> 1000,> 1000,–,66.4,30.5,–,–,> 1000
O=C(NCCc1ccccc1)C(c1ccccc1)(c1ccccc1)c1ccccc1,> 100,11.3,–,> 100,–,9.36,21.4,–,3.19,–,31,–,2.51,8.97,–,3.26
Cc1ccc2c(c1)C(C)Cc1c(ncnc1-n1cnc3cc(C)ccc31)N2C (centres undefined),0.0553,12.2,–,16.5,8.74,–,0.165,13.4,0.0368,–,0.0434,0.0289,–,0.0324,44.9,0.0224
